Assay results from patent US7432392B2, “Ester derivatives and medical use thereof” (Japan Tobacco Inc., priority 2003, dated 2008).

Tests used:
[1] = target: T1, Microsomal triglyceride transfer protein (MTP) from bovine liver (Bos taurus, UniProt P55156); experiment: Inhibition of interliposomal triglyceride (TG) transfer activity by MTP; type: biochemical; conditions: MTP-mediated TG transfer between donor and acceptor liposomes, 37° C., one hour
T1 construct: the purified MTP was used for the test; from tissue; host or cells: bovine liver
T1 sequence (P55156 12-887): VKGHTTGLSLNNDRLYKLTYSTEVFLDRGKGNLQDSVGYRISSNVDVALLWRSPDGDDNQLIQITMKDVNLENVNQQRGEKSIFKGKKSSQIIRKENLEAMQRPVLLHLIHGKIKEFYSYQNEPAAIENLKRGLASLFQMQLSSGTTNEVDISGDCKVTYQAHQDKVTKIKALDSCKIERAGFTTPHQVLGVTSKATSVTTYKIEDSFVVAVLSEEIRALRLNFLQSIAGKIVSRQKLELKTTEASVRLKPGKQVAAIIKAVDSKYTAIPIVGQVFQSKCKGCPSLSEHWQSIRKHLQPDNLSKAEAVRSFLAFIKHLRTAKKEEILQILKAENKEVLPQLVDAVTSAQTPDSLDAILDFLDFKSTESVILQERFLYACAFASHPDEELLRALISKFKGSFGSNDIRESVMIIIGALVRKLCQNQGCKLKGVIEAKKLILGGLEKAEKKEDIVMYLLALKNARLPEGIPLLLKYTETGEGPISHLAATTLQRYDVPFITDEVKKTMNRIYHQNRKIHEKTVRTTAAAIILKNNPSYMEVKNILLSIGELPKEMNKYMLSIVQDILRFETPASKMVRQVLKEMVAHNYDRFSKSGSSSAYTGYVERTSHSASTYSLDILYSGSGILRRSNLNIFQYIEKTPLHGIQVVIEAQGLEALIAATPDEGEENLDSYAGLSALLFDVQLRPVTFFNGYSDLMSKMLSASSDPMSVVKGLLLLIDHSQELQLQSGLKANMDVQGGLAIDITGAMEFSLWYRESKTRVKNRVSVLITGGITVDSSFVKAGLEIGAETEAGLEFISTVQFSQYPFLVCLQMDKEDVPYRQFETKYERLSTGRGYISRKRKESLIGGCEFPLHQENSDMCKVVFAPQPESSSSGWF
T1 sequence (P05307 21-510 partner): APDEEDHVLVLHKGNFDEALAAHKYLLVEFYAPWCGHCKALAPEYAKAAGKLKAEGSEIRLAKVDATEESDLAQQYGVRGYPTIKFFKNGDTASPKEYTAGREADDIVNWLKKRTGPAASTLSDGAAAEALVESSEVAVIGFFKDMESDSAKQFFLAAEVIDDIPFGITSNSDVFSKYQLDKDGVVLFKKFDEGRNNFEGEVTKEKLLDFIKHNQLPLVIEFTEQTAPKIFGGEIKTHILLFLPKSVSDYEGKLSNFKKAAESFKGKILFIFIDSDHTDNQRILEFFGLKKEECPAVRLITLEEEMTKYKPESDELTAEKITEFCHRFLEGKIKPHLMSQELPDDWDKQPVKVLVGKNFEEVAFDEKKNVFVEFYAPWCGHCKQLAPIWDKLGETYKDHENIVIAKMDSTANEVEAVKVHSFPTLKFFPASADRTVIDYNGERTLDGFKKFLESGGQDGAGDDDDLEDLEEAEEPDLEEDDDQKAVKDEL
Procedure, shortened: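 Partially purified bovine liver MTP (DEAE chromatography) was incubated 1 h at 37° C with ^14C-triolein donor SUV liposomes and unlabeled acceptor liposomes in pH 7.4 Tris buffer with 0.5% BSA. Donor was removed with DEAE cellulose and acceptor radioactivity counted. IC50 came from blank-corrected inhibition relative to DMSO.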

[2] = Metabolic stability test in small intestine S9 (human); type: in vitro ADME; conditions: Human small intestine S9, 2 mg protein/mL, 37° C.
Description: (§1) Human and hamster liver S9 (final concentration: 2 mg protein/mL), and human and hamster small intestine S9 (final concentration: 2 mg protein/mL) were each suspended in 100 mM potassium phosphate buffer (pH 7.4, containing β-nicotinamide adenine dinucleotide phosphate: 1.3 mM, D-glucose-6-phosphate: 3.3 mM, magnesium chloride: 3.3 mM, and glucose-6-phosphate dehydrogenase: 0.4 U/mL). The suspensions were mixed with a solution of a sample (Example 1) in DMSO. The solutions were incubated at 37° C. for 0, 10 and 60 minutes, and an organic solvent was added thereto. The solutions were centrifuged, and the concentration of the sample (unchanged form) in the supernatant was determined by high performance liquid chromatography/mass spectrometry (LC/MS). Based on the data obtained, remaining rate (%) was calculated according to the following equation. Remaining rate(%)=amount of sample 10 or 60 minutes after incubation/amount of sample at zero time after incubation×100

[3] = Metabolic stability test in small intestine S9 (hamster); type: in vitro ADME; conditions: Hamster small intestine S9, 2 mg protein/mL, 37° C.
Description: as §1

With `CCOC(=O)C(COC(=O)Cc1ccc(NC(=O)c2ccccc2-c2ccc(C(F)(F)F)cc2)c(OC(C)=O)c1)(C(=O)OCC)c1ccccc1` [Example 1, 2-(2-{3-acetoxy-4-[(4′-trifluoromethyl-biphenyl-2-carbonyl)amino]phenyl}acetoxymethyl)-2-phenylmalonic acid diethyl ester] the IC50 [1] was < 10 nM, the “Remaining rate (%) after 10 minutes” value ([2]; 10 minutes) was 7.5% and the “Remaining rate (%) after 60 minutes” value ([2]; 60 minutes) was 1.1%. For the same compound, the “Remaining rate (%) after 10 minutes” value ([3]; 10 minutes) was 4.1% and the “Remaining rate (%) after 60 minutes” value ([3]; 60 minutes) was 0.0%.
